Reference: patent US7205261B2, “Use of certain N-acylethanolamines to achieve ethylene- and cytokinin-like effects in plants and fungi” (Nutra-Park, Inc., priority 2002, dated 2007)

tested on: Raphanus sativus L. cv. Cherry Belle cotyledons; experiment: Radish cotyledon bioassay (expansion growth and chlorophyll accumulation); assay type: in vivo; conditions: Experiment 1; 20 mg/l; 72 h
From the text: Radish cotyledon bioassay: This bioassay using Raphanus sativus L. cv. Cherry Belle cotyledons was developed by Letham, DS (Physiologia Plantarum 25, 391–396, 1971, incorporated by reference in its entirety) to evaluate the efficacy of cytokinin on cell enlargement. Success using this assay is not restricted to radish. […] In addition to their effect on cell division, cytokinin plays a major role in driving cell enlargement. Compounds in this class of phytohormone and with cytokinin activity also help maintain photosynthetic activity and productivity and abolish proteolytic activity. In cotyledon leaf systems, a requirement for cytokinin is critical and removal of the roots (i.e. the presumed source of cytokinin) renders the cotyledon leaves unable to expand. Exposure to cytokinin (0.02–22 μg/ml) results in a dramatic increase in fresh weight of cotyledons within 72 hours. This effect is not observed with either gibberellin or auxin and is usually delayed or inhibited by abscisic acid and the ethylene precursor, 1-aminocyclopropane-1-carboxylic acid (ACC). […] Thus, the mode of action of cytokinin in this system appears to be similar to that of indole-3-acetic acid (IAA) in auxin-induced stem elongation, a process that depends on an increase in the mechanical extensibility of the cell wall. However, cytokinin antagonizes IAA-mediated cell elongation and appears to do so by promoting ethylene production. Furthermore, cytokinin-induced cell expansion is not usually accompanied by proton (H^+) extrusion and no change in plasma membrane ATPase activity is evident.
Seeds of Raphanus sativus L. cv. Cherry-Belle were germinated in darkness at 24° C. for 36 h in Petri dishes containing filter paper wetted with distilled water. The smaller of the two cotyledons was excised, the fresh weight determined, and 10 cotyledons placed adaxial side down on filter paper in Petri dishes containing 10 ml of KPO4 buffer (2 mM, pH 6.0) and the compounds to be tested at 20 mg/l. […] Chlorophyll content was determined after extraction of tissue into 80% ethanol (containing butylated hydroxytoluene (BHT) 10 mg/l) using the equations Chl a=(13.95A663)−(6.88A647) and Chl b=(24.96A652)−(7.32A663) as described by Lichtenthaler, HK, Methods in Enzymology 148: 350–382, 1987, incorporated by reference in its entirety. FIG. 6 illustrates the difference in cotyledon size in response to the cytokinin kinetin.

Row | Compound | Chlorophyll a/b
1 | NC1(C(=O)O)CC1 [ACC, 1-aminocyclopropane-1-carboxylic acid, reference compound] | 3.7
2 | c1coc(CNc2ncnc3[nH]cnc23)c1 [Kinetin, kinetin, reference compound] | 1.2

same assay, conditions: Experiment 1; 20 mg/l; 72 h; continuous illumination, 25° C.; ten cotyledons

Row | Compound | Change in fresh weight [mg]
3 | NC1(C(=O)O)CC1 [ACC, 1-aminocyclopropane-1-carboxylic acid, reference compound] | 5.54 ± 2.87
4 | c1coc(CNc2ncnc3[nH]cnc23)c1 [Kinetin, kinetin, reference compound] | 23.74 ± 7.92

same assay, conditions: Experiment 2; 20 mg/l; 48 h

Row | Compound | Chlorophyll (mg/g FW) a + b [mg/g FW] | Chlorophyll (μg/cotyledon) a + b [μg/cotyledon] | Chlorophyll a/b
5 | CCCCCCCCCCCCCCCCCC(=O)NCCO [NAE-18:0, N-Octadecanoyl-2-aminoethanol] | 1.85 | 22.42 | 1.9
6 | O=C(NCCO)c1ccccc1 [NAE-Bz, N-Benzoyl-2-aminoethanol] | 1.77 | 20.87 | 1.8
7 | CCCCC(CC)C(=O)NCCO (stereo not shown) [NAE-EH, N-(2-Ethylhexanoyl)-2-aminoethanol] | 1.63 | 19.73 | 1.8
8 | NC1(C(=O)O)CC1 [ACC, 1-aminocyclopropane-1-carboxylic acid, reference compound] | 1.42 | 12.27 | 1.8
9 | CCCCCCCCCCCCCCCC(=O)NCCO [NAE-16:0, N-Hexadecanoyl-2-aminoethanol] | 1.44 | 24.18 | 1.7
10 | c1coc(CNc2ncnc3[nH]cnc23)c1 [Kinetin, kinetin, reference compound] | 0.81 | 25.78 | 1.8
11 | CCCCCCCCCCCC(=O)NCCO [NAE-12:0, N-Dodecanoyl-2-aminoethanol] | 1.79 | 23.16 | 2.0

same assay, conditions: Experiment 2; 20 mg/l; 48 h; continuous illumination, 25° C.; ten cotyledons

Row | Compound | Change in fresh weight [mg]
12 | CCCCCCCCCCCCCCCCCC(=O)NCCO [NAE-18:0, N-Octadecanoyl-2-aminoethanol] | 7.75 ± 1.01
13 | O=C(NCCO)c1ccccc1 [NAE-Bz, N-Benzoyl-2-aminoethanol] | 7.36 ± 1.00
14 | CCCCC(CC)C(=O)NCCO (stereo not shown) [NAE-EH, N-(2-Ethylhexanoyl)-2-aminoethanol] | 7.69 ± 1.16
15 | NC1(C(=O)O)CC1 [ACC, 1-aminocyclopropane-1-carboxylic acid, reference compound] | 4.25 ± 0.63
16 | CCCCCCCCCCCCCCCC(=O)NCCO [NAE-16:0, N-Hexadecanoyl-2-aminoethanol] | 12.42 ± 2.26
17 | c1coc(CNc2ncnc3[nH]cnc23)c1 [Kinetin, kinetin, reference compound] | 27.26 ± 2.88
18 | CCCCCCCCCCCC(=O)NCCO [NAE-12:0, N-Dodecanoyl-2-aminoethanol] | 8.53 ± 1.59

same assay, conditions: Raphanus sativus, 48 h, read-out: Change in fresh weight, % of control

Row | Compound | activity at 20 µg/mL [%]
19 | CCCCCCCCCCCC(=O)NCCO [NAE-12:0, N-Dodecanoyl-2-aminoethanol] | 105

same assay, conditions: Raphanus sativus; Experiment 1; 20 mg/l; 72 h; read-out: Change in fresh weight, % of control

Row | Compound | activity at 20 µg/mL [%]
20 | NC1(C(=O)O)CC1 [ACC, 1-aminocyclopropane-1-carboxylic acid, reference compound] | 40
21 | c1coc(CNc2ncnc3[nH]cnc23)c1 [Kinetin, kinetin, reference compound] | 169

same assay, conditions: Raphanus sativus; Experiment 2; 20 mg/l; 48 h; read-out: Change in fresh weight, % of control

Row | Compound | activity at 20 µg/mL [%]
22 | CCCCCCCCCCCCCCCCCC(=O)NCCO [NAE-18:0, N-Octadecanoyl-2-aminoethanol] | 96
23 | O=C(NCCO)c1ccccc1 [NAE-Bz, N-Benzoyl-2-aminoethanol] | 91
24 | CCCCC(CC)C(=O)NCCO (stereo not shown) [NAE-EH, N-(2-Ethylhexanoyl)-2-aminoethanol] | 95
25 | NC1(C(=O)O)CC1 [ACC, 1-aminocyclopropane-1-carboxylic acid, reference compound] | 52
26 | CCCCCCCCCCCCCCCC(=O)NCCO [NAE-16:0, N-Hexadecanoyl-2-aminoethanol] | 153
27 | c1coc(CNc2ncnc3[nH]cnc23)c1 [Kinetin, kinetin, reference compound] | 336

same assay, conditions: Table 3, 48 h incubation, 20 mg/l

Row | Compound | chlorophyll content per unit mass (in words) | chlorophyll per cotyledon (in words) | hormone-like activity with respect to expansion growth (in words)
28 | CCCCCCCCCCCCCCCC(=O)NCCO [NAE-16:0, N-Hexadecanoyl-2-aminoethanol] | decreased chlorophyll content per unit mass | increased chlorophyll per cotyledon | cytokinin-like activity

same assay, conditions: summary statement in the description

Row | Compound | cytokinin-like activities (summary of the examples)
29 | CCCCCCCCCCCCCCCC(=O)NCCO [NAE-16:0, N-Hexadecanoyl-2-aminoethanol] | cytokinin-like activities
30 | CCCCCCCCCCCC(=O)NCCO [NAE-12:0, N-Dodecanoyl-2-aminoethanol] | cytokinin-like activities
